Reference: article PMC11784096, “Synthesis, antibacterial evaluation and in silico studies of novel 2-(benzo[d]thiazol-2-yl)-N-arylacetamides and their derivatives as potential DHFR inhibitors” (BMC Chemistry, 2025)
Values after ≈ are worked out from the molar mass of the structure shown.

How the values were obtained:
K. pneumonia [1] = test: Agar diffusion method, inhibition zone diameter; assay type: cell-based, Klebsiella pneumonia; details: Gram-negative
Excerpt: (§1) The bacterial growth inhibition activity of most of the newly synthesized compounds was examined against different Gram-positive and Gram-negative strains. The Agar diffusion method was used to assess the antibacterial and antifungal activity. The Gram-negative strains were: E. coli, K. pneumonia, P. aeruginosa and A. baumannii, the Gram-positive strains were: St. aureus, St. mutans and the standard antibiotics were gentamicin, tigecycline and ampicillin.
(§2) The agar-based media plate surface was inoculated by spreading a volume of the microbial inoculum over the entire agar surface.
(§3) Using a sterile cork borer or a tip, a hole with a diameter of 6 to 8 mm was made.
(§4) Using a micropipette, (20 µL) volume of the antimicrobial agent or extract solution at the desired concentration was introduced into the well.
(§5) The inoculated plates were incubated under suitable conditions depending upon the tested microorganism. The antimicrobial agent diffused through the agar medium and inhibited the growth of the microbial strain tested.
(§6) After a suitable incubation period (16 to 48 hours) according to the optimum growth conditions, the resulting inhibition zone diameters (in mm) around the wells were measured to the nearest whole millimeter at the point at which there is a prominent reduction in growth. If growth is insufficient at the recommended times, the plates should be re-incubated and read later.

A. baumannii [2] = test: Agar diffusion method, inhibition zone diameter; assay type: cell-based, Acinetobacter baumannii; details: Gram-negative
Excerpt: as §1, §2, §3, §4, §5, §6

E. coli [3] = test: Minimum inhibition concentration, serial dilution; assay type: cell-based, Escherichia coli; details: 37 °C; for MIC: Escherichia coli
Method: (§7) For each strain, three to five isolated colonies were selected from the fresh agar plate and transferred into a tube containing 3-4 ml of the sterile broth medium. The bacterial suspension was mixed well and incubated at 35-37 °C for 2-6 hours. […] After that, 1 mg of the tested compound (antimicrobial agent) was dissolved in 1 ml of DMSO and a two-fold serial dilution was done using a broth medium. A fixed volume of the prepared bacterial inoculum was added to each tube and incubated at 37 °C for 16-20 hours. The MIC is defined as the lowest concentration of the antimicrobial agent that inhibits visible growth of the tested isolate as observed with the unaided eye.

P. aeruginosa [4] = test: Agar diffusion method, inhibition zone diameter; assay type: cell-based, Pseudomonas aeruginosa; details: Gram-negative
Excerpt: as §1, §2, §3, §4, §5, §6

K. pneumonia [5] = test: Minimum inhibition concentration, serial dilution; assay type: cell-based, Klebsiella pneumonia; details: 37 °C; for MIC: Klebsiella pneumoniae
Method: as §7

E. coli [6] = test: Agar diffusion method, inhibition zone diameter; assay type: cell-based, Escherichia coli; details: Gram-negative
Excerpt: as §1, §2, §3, §4, §5, §6

A. baumannii [7] = test: Minimum inhibition concentration, serial dilution; assay type: cell-based, Acinetobacter baumannii; details: 37 °C; for MIC: Acinetobacter baumannii
Method: as §7

St. aureus = test: Agar diffusion method, inhibition zone diameter; assay type: cell-based, Staphylococcus aureus; details: Gram-positive
Excerpt: as §1, §2, §3, §4, §5, §6

P. aeruginosa [8] = test: Minimum inhibition concentration, serial dilution; assay type: cell-based, Pseudomonas aeruginosa; details: 37 °C; for MIC: Pseudomonas aeruginosa
Method: as §7

St. mutans = test: Agar diffusion method, inhibition zone diameter; assay type: cell-based; details: Gram-positive
Excerpt: as §1, §2, §3, §4, §5, §6

Molecule	IZD K. pneumonia (K. pneumonia [1])	IZD A. baumannii (A. baumannii [2])	IZD P. aeruginosa (P. aeruginosa [4])	IZD E. coli (E. coli [6])	IZD St. aureus (St. aureus)	other results
COc1ccc(-c2c(C#N)c(N)n(-c3ccc(C)cc3)c(=O)c2-c2nc3ccccc3s2)cc1 [11d, 2-Amino-5-(benzo[d]thiazol-2-yl)-4-(4-methoxyphenyl)-6-oxo-1-(p-tolyl)-1,6-dihydro-pyridine-3-carbonitrile]	23 ± 1 mm	10 ± 1 mm	13 ± 1 mm	35 ± 1 mm	–	MIC (E. coli [3]): 0.0315 µg/mL (≈ 0.0678 µM); MIC (K. pneumonia [5]): 0.0625 µg/mL (≈ 0.135 µM)
Cc1ccc(NC(=O)C(=Cc2cn(-c3ccccc3)nc2-c2ccccc2)c2nc3ccccc3s2)cc1 [6d, 2-(Benzo[d]thiazol-2-yl)-3-(1,3-diphenyl-1H-pyrazol-4-yl)-N-(p-tolyl)acrylamide]	13 ± 1 mm	10 ± 1 mm	–	–	–	–
Cc1ccc(-c2nn(-c3ccccc3)cc2C=C(C(=O)Nc2ccc(Cl)cc2)c2nc3ccccc3s2)cc1 [6h, 2-(Benzo[d]thiazol-2-yl)-N-(4-chlorophenyl)-3-(1-phenyl-3-(p-tolyl)-1H-pyrazol-4-yl)acrylamide]	–	13 ± 1 mm	–	–	–	–
4-(2-(Benzo[d]thiazol-2-yl)acetamido)benzoic acid [2e]	36 ± 1 mm	36 ± 1 mm	36 ± 1 mm	35 ± 1 mm	20 ± 1 mm	MIC A. baumannii (A. baumannii [7]): 0.125 µg/mL; MIC E. coli (E. coli [3]): 0.03125 µg/mL; MIC K. pneumonia (K. pneumonia [5]): 0.03125 µg/mL; MIC P. aeruginosa (P. aeruginosa [8]): 0.03125 µg/mL
COc1ccc(-c2c(C#N)c(N)n(-c3ccc(Cl)cc3)c(=O)c2-c2nc3ccccc3s2)cc1 [11f, 2-Amino-5-(benzo[d]thiazol-2-yl)-1-(4-chlorophenyl)-4-(4-methoxyphenyl)-6-oxo-1,6-dihydropyridine-3-carbonitrile]	20 ± 1.1 mm	15 ± 1.1 mm	16 ± 1 mm	17 ± 1.1 mm	20 ± 1.1 mm	IZD St. mutans (St. mutans): 20 ± 1.1 mm
O=C(Nc1ccccc1)C(=Cc1cn(-c2ccccc2)nc1-c1ccccc1)c1nc2ccccc2s1 [6a, 2-(Benzo[d]thiazol-2-yl)-3-(1,3-diphenyl-1H-pyrazol-4-yl)-N-phenylacrylamide]	20 ± 1 mm	–	23 ± 1 mm	20 ± 1 mm	–	MIC (E. coli [3]): 0.0625 µg/mL (≈ 0.125 µM); MIC (K. pneumonia [5]): 0.0625 µg/mL (≈ 0.125 µM); MIC (P. aeruginosa [8]): 0.125 µg/mL (≈ 0.251 µM)
COc1ccc(C=C(C(=O)Nc2ccc(C)cc2)c2nc3ccccc3s2)cc1 [4f, 2-(Benzo[d]thiazol-2-yl)-3-(4-methoxyphenyl)-N-(p-tolyl)acrylamide]	25 ± 1.1 mm	15 ± 1.1 mm	20 ± 1 mm	25 ± 1.1 mm	25 ± 1.1 mm	IZD St. mutans (St. mutans): 18 ± 1.1 mm; MIC (E. coli [3]): 0.0625 µg/mL (≈ 0.156 µM); MIC K. pneumonia (K. pneumonia [5]): 0.0625 µg/mL (≈ 0.156 µM); MIC (K. pneumonia [5]): 0.0312 µg/mL (≈ 0.078 µM); MIC (P. aeruginosa [8]): 0.125 µg/mL (≈ 0.312 µM)
O=C(Nc1ccccc1)C(=Cc1ccccc1)c1nc2ccccc2s1 [4a, 2-(Benzo[d]thiazol-2-yl)-N,3-diphenylacrylamide]	–	–	–	11 ± 1 mm	–	–
COc1ccc(C=C(C(=O)Nc2ccc(C)cc2)c2nc3ccccc3s2)cc1OC [4g, 2-(Benzo[d]thiazol-2-yl)-3-(3,4-dimethoxyphenyl)-N-(p-tolyl)acrylamide]	–	–	–	18 ± 1 mm	–	–
Cc1ccc(NC(=O)C(=Cc2cn(-c3ccccc3)nc2-c2ccc(C)cc2)c2nc3ccccc3s2)cc1 [6e, 2-(Benzo[d]thiazol-2-yl)-3-(1-phenyl-3-(p-tolyl)-1H-pyrazol-4-yl)-N-(p-tolyl)acrylamide]	36 ± 0.8 mm	–	–	31 ± 1 mm	29 ± 0.5 mm	–
O=C(Nc1ccccc1)C(=Cc1ccc(Cl)cc1)c1nc2ccccc2s1 [4d, 2-(Benzo[d]thiazol-2-yl)-3-(4-chlorophenyl)-N-phenylacrylamide]	20 ± 1 mm	15 ± 1 mm	no activity	20 ± 1 mm	–	MIC (A. baumannii [7]): 0.25 µg/mL (≈ 0.64 µM); MIC (E. coli [3]): 0.125 µg/mL (≈ 0.32 µM); MIC (K. pneumonia [5]): 0.125 µg/mL (≈ 0.32 µM)
COc1ccc(-c2c(C#N)c(N)n(-c3ccccc3)c(=O)c2-c2nc3ccccc3s2)cc1 [11b, 2-Amino-5-(benzo[d]thiazol-2-yl)-4-(4-methoxyphenyl)-6-oxo-1-phenyl-1,6-dihydro-pyridine-3-carbonitrile]	–	15 ± 1 mm	–	19 ± 1 mm	–	–
O=C(Nc1ccc(Cl)cc1)C(=Cc1ccccc1)c1nc2ccccc2s1 [4i, 2-(Benzo[d]thiazol-2-yl)-N-(4-chlorophenyl)-3-phenylacrylamide]	23 ± 1 mm	15 ± 1 mm	no activity	20 ± 1 mm	12 ± 1 mm	MIC (E. coli [3]): 0.125 µg/mL (≈ 0.32 µM); MIC (K. pneumonia [5]): 0.125 µg/mL (≈ 0.32 µM)
O=C(Nc1ccccc1)C(=Cc1cn(-c2ccccc2)nc1-c1ccc(Cl)cc1)c1nc2ccccc2s1 [6c, 2-(Benzo[d]thiazol-2-yl)-3-(3-(4-chlorophenyl)-1-phenyl-1H-pyrazol-4-yl)-N-phenyl-acrylamide]	–	13 ± 1 mm	–	–	–	–
O=C(Nc1ccc(Cl)cc1)C(=Cc1ccc(OC(=O)c2ccccc2)cc1)c1nc2ccccc2s1 [4o, 4-(2-(Benzo[d]thiazol-2-yl)-3-((4-chlorophenyl)amino)-3-oxoprop-1-en-1-yl)phenyl-benzoate]	13 ± 1 mm	10 ± 1 mm	–	–	–	–
CN(C)c1cc(NC(=O)CNC(C)(C)C)c(O)c2c1C[C@H]1C[C@H]3[C@H](N(C)C)C(O)=C(C(N)=O)C(=O)[C@@]3(O)C(O)=C1C2=O [Tigecycline, reference compound]	–	23 ± 0.4 mm	–	–	–	MIC (A. baumannii [7]): 0.0312 µg/mL (≈ 0.0534 µM)
Cc1ccc(-c2nn(-c3ccccc3)cc2C=C(C(=O)Nc2ccccc2)c2nc3ccccc3s2)cc1 [6b, 2-(Benzo[d]thiazol-2-yl)-N-phenyl-3-(1-phenyl-3-(p-tolyl)-1H-pyrazol-4-yl)acrylamide]	13 ± 1 mm	10 ± 1 mm	–	–	–	–
CNC(C)C1CCC(N)C(OC2C(N)CC(N)C(OC3OCC(C)(O)C(NC)C3O)C2O)O1 (stereo not drawn) [Gentamicin, reference compound]	29 ± 0.5 mm	–	32 ± 0.4 mm	27 ± 0.1 mm	–	MIC (A. baumannii [7]): 0.0312 µg/mL (≈ 0.0654 µM); MIC (E. coli [3]): 0.0312 µg/mL (≈ 0.0654 µM); MIC (K. pneumonia [5]): 0.0625 µg/mL (≈ 0.131 µM); MIC (P. aeruginosa [8]): 0.0312 µg/mL (≈ 0.0654 µM)
N#Cc1c(-c2ccccc2)c(-c2nc3ccccc3s2)c(=O)n(-c2ccccc2)c1N [11a, 2-Amino-5-(benzo[d]thiazol-2-yl)-6-oxo-1,4-diphenyl-1,6-dihydropyridine-3-carbonitrile]	–	19 ± 0.5 mm	–	18 ± 0.5 mm	14 ± 1 mm	IZD St. mutans (St. mutans): 15 ± 1 mm
O=C(Nc1ccc(Cl)cc1)/C(=C\c1cn(-c2ccccc2)nc1-c1ccc(Cl)cc1)c1nc2ccccc2s1 [6i]	–	19 ± 0.5 mm	–	18 ± 0.5 mm	14 ± 1 mm	IZD St. mutans (St. mutans): 15 ± 1 mm
COc1ccc(C=C(C(=O)Nc2ccccc2)c2nc3ccccc3s2)cc1 [4b, 2-(Benzo[d]thiazol-2-yl)-3-(4-methoxyphenyl)-N-phenylacrylamide]	–	13 ± 1 mm	–	–	–	–
